In brackets after ≈: the same amount, converted by molar mass. Where two headings read alike, the source gives them in different places.
Key:
[1] = tested on: S. aureus ATCC25923; assay: MIC determination by microplate dilution, S. aureus human strain; assay type: cell-based, Staphylococcus aureus; settings: Staphylococcus aureus, ATCC25923, Gram-positive, Mueller-Hinton medium, 24 h, 37° C.
How it was run: (§1)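 Twofold dilution series of compounds (stock 5 mg/mL, DMSO/methanol 50/50) in Mueller-Hinton medium, seeded with bacteria at OD 0.01 from 24 h, 37 °C precultures. After 24 h at 37 °C under humid atmosphere, MIC derived from OD at 620 nm; run in duplicate.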

[2] = tested on: S. aureus (340); assay: MIC determination by microplate dilution, S. aureus animal strain; assay type: cell-based, Staphylococcus aureus; settings: Staphylococcus aureus, Gram-positive, Mueller-Hinton medium, 24 h, 37° C.
How it was run: as §1

[3] = tested on: S. intermedius (1051997); assay: MIC determination by microplate dilution, S. intermedius animal strain; assay type: cell-based, Staphylococcus intermedius; settings: Staphylococcus intermedius, Gram-positive, Mueller-Hinton medium, 24 h, 37° C.
How it was run: as §1

[4] = tested on: E. faecalis ATCC29212; assay: MIC determination by microplate dilution, E. faecalis human strain; assay type: cell-based, Enterococcus faecalis; settings: Enterococcus faecalis, ATCC29212, Gram-positive, Mueller-Hinton medium, 24 h, 37° C.
How it was run: as §1

[5] = tested on: E. coli ATCC28922; assay: MIC determination by microplate dilution, E. coli human strain; assay type: cell-based, Escherichia coli; settings: Escherichia coli, ATCC28922, Gram-negative, Mueller-Hinton medium, 24 h, 37° C.
How it was run: as §1

[6] = tested on: P. aeruginosa (1051575); assay: MIC determination by microplate dilution, P. aeruginosa animal strain; assay type: cell-based, Pseudomonas aeruginosa; settings: Pseudomonas aeruginosa, Gram-negative, Mueller-Hinton medium, 24 h, 37° C.
How it was run: as §1

[7] = tested on: CHO-K1 cells; assay: WST1 cytotoxicity test on CHO-K1 cells; assay type: cell-based, Chinese hamster; settings: Cricetulus griseus
How it was run: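 Viability read-out: WST-1 tetrazolium cleavage by mitochondrial dehydrogenases, 20 min at 37 °C, A450. Compounds added at rising concentrations, in duplicate, to CHO-K1 cells for 24 h (37 °C, 5% CO2). IC50, the concentration halving viability, fitted by nonlinear regression.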

[8] = tested on: P. aeruginosa (1051575); assay: Potentiation of the doxycycline activity at 2 μg/mL; assay type: cell-based, Pseudomonas aeruginosa; settings: for MIC - P. aeruginosa (1051575): content of compound of formula (I) to restore the doxycycline activity (at 2 μg/mL): in combination with doxycycline 2 μg/mL, 24 h, 37°
[9] = tested on: P. aeruginosa (1051575); assay: Potentiation of ampicillin activity; assay type: cell-based, Pseudomonas aeruginosa; settings: concentration of compound required with ampicillin 4 μg/mL
Procedure: (§2) This method requires the use of a 96-well plate: 100 μL of a liquid culture medium are placed in each well and then seeded with the microbial suspension prepared previously. The required volume to be seeded is calculated for an OD of 0.01, which corresponds to about 5×10^6 bacteria in each well. In this plate, the first line corresponds to a negative control (200 μL of sterile culture medium in each well), the second line corresponds to a positive control (100 μL of sterile culture medium+100 μL of the bacterial suspension), and the third line contains 192 μL of culture medium; 8 μL of compound of formula (I) to be tested are placed in each well. […] 92 μL of bacterial suspension are then added to lines 3 to 8. […] After 24 hours of incubation at 37° C., 40 μL of nitro tetrazolium iodide are added to each well to reveal the presence of live bacteria by staining the medium pink.
(§3) The procedure is identical to that indicated in Example 5 above. […]
(§4) The results are given in table V. They indicate the concentration of compound of formula (I) required to be able to restore the activity of the antibiotic under consideration.

[10] = tested on: P. aeruginosa (1051575); assay: Potentiation of erythromycin activity; assay type: cell-based, Pseudomonas aeruginosa; settings: concentration of compound required with erythromycin 2 μg/mL
Procedure: This method requires the use of a 96-well plate: 100 μL of a liquid culture medium are placed in each well and then seeded with the microbial suspension prepared previously. The required volume to be seeded is calculated for an OD of 0.01, which corresponds to about 5×10^6 bacteria in each well. In this plate, the first line corresponds to a negative control (200 μL of sterile culture medium in each well), the second line corresponds to a positive control (100 μL of sterile culture medium+100 μL of the bacterial suspension), and the third line contains 192 μL of culture medium; 8 μL of compound of formula (I) to be tested are placed in each well. Thereafter, a cascade dilution is performed from this line. […] (1 mg dissolved in 20 mL) are then added to each well of the lines 3 to 8 to obtain a final antibiotic concentration of 2 μg/mL. 92 μL of bacterial suspension are then added to lines 3 to 8. […] After 24 hours of incubation at 37° C., 40 μL of nitro tetrazolium iodide are added to each well to reveal the presence of live bacteria by staining the medium pink.
The procedure is identical to that indicated in Example 5 above. 8 μL of an antibiotic solution under consideration (1 mg dissolved in 20 mL) are added to obtain a final antibiotic concentration of 2 μg/mL instead of 8 μL of a doxycycline solution.
as §4

[11] = tested on: P. aeruginosa (1051575); assay: Potentiation of chloramphenicol activity; assay type: cell-based, Pseudomonas aeruginosa
Procedure: as §2, §3, §4

[12] = tested on: C. albicans; assay: Antifungal activity, cascade microdilution, C. albicans; assay type: cell-based, Candida albicans; settings: Candida albicans, 24 h, read-out: IC50 (μg/mL) C. albicans
[13] = tested on: E. coli (1956); assay: MIC determination by microplate dilution, E. coli animal strain; assay type: cell-based, Escherichia coli; settings: Escherichia coli, Gram-negative, Mueller-Hinton medium, 24 h, 37° C.
How it was run: as §1

[14] = tested on: P. aeruginosa ATCC27853; assay: MIC determination by microplate dilution, P. aeruginosa human strain; assay type: cell-based, Pseudomonas aeruginosa; settings: Pseudomonas aeruginosa, ATCC27853, Gram-negative, Mueller-Hinton medium, 24 h, 37° C.
How it was run: as §1

[15] = CHO-K1, read-out: IC50 (μg/mL) CHO
[16] = concentration of compound required with chloramphenicol 4 μg/mL
[17] = concentration of compound required with chloramphenicol 2 μg/mL

Row | SMILES | MIC [1] [µg/mL] | MIC [2] [µg/mL] | MIC [3] [µg/mL] | MIC [4] [µg/mL] | MIC [5] [µg/mL] | MIC [6] [µg/mL] | IC50 ([7]; CHO-K1, 24 h, read-out: IC50 (μg/mL) CHO) [µg/mL] | IC50 [7, 15] [µg/mL] | synergism with doxycycline ([8]; administered with doxycycline at 2 μg/mL) | MIC - P. aeruginosa (1051575): content of compound of formula (I) to restore the doxycycline activity (at 2 μg/mL) [8] [µg/mL] | MIC P. aeruginosa (1051575), compound + ampicillin [9] [µg/mL] | MIC P. aeruginosa (1051575), compound + erythromycin [10] [µg/mL] | MIC P. aeruginosa (1051575), compound + chloramphenicol [11, 16] [µg/mL] | IC50 [12] [µg/mL] | MIC [13] [µg/mL] | MIC P. aeruginosa (1051575), compound + chloramphenicol [11, 17] [µg/mL] | MIC [14] [µg/mL] | IC50 ([7]; CHO-K1, CHO (Example 7), read-out: IC50 (μg/mL) CHO) [µg/mL] | IC50 ([12]; compounds as hydrochloride in water, MH medium) [µg/mL]
1 | CC(C)OC(=O)CC[C@@H](C)[C@H]1CCC2C3C(CC[C@@]21C)[C@@]1(C)CC[C@H](NCCCNCCCN)CC1C[C@H]3O (stereo partly drawn) [(11), isopropyl 3β-norspermidinochenodeoxycholate] | 7 (≈ 12.8 µM) | 2 (≈ 3.65 µM) | 2 (≈ 3.65 µM) | 3.5 (≈ 6.39 µM) | 14 (≈ 25.6 µM) | 14 (≈ 25.6 µM) | 140 (≈ 256 µM) | 140 (≈ 256 µM) | noteworthy synergism | 1 | 56 | 28 | 2 | 4 (≈ 7.3 µM) |  |  |  |  | 
2 | CC(C)OC(=O)CC[C@@H](C)[C@H]1CCC2C3CCC4C[C@@H](NCCNCCNCCNCCNCCN)CC[C@]4(C)C3CC[C@@]21C (stereo partly drawn) [(26), isopropyl 3β-(pentaethylenehexamine)lithocholate] |  | 18 (≈ 28.4 µM) | 8 (≈ 12.6 µM) |  |  | 60 (≈ 94.8 µM) |  |  |  |  |  | 60 |  |  | 60 (≈ 94.8 µM) | 8 |  |  | 
3 | CC(C)OC(=O)CC[C@@H](C)[C@H]1CCC2C3CCC4C[C@@H](NCCN(CCN)CCN)CC[C@]4(C)C3C[C@H](O)[C@@]21C (stereo partly drawn) [(29), isopropyl 3β-(tris(2-aminoethyl)amine)deoxycholate] | 28 (≈ 49.7 µM) | 14 (≈ 24.9 µM) | 14 (≈ 24.9 µM) | 28 (≈ 49.7 µM) | 14 (≈ 24.9 µM) | 56 (≈ 99.5 µM) |  |  |  | 4 | 56 | 56 | 7 |  | 28 (≈ 49.7 µM) |  | 56 (≈ 99.5 µM) |  | 
4 | CC(C)OC(=O)CC[C@@H](C)[C@H]1CCC2C3C(C[C@H](O)[C@@]21C)[C@@]1(C)CC[C@H](NCCCN(C)CCCN)CC1C[C@H]3O (stereo partly drawn) [(36), isopropyl 3β-(bis(3-aminopropyl)methylamine)cholate] | 29 (≈ 50.2 µM) | 29 (≈ 50.2 µM) | 14 (≈ 24.2 µM) | 58 (≈ 100 µM) | 58 (≈ 100 µM) | 58 (≈ 100 µM) |  |  |  | 4 | 58 | 58 | 8 |  | 58 (≈ 100 µM) |  | 58 (≈ 100 µM) |  | 
5 | CC(C)OC(=O)CC[C@@H](C)[C@H]1CCC2C3C(CC[C@@]21C)[C@@]1(C)CC[C@H](NCCN(CCN)CCN)CC1C[C@H]3O (stereo partly drawn) [(40), isopropyl 3β-(tris(2-aminoethyl)amine)chenodeoxycholate] | 14 (≈ 24.9 µM) | 14 (≈ 24.9 µM) | 7 (≈ 12.4 µM) | 14 (≈ 24.9 µM) | 14 (≈ 24.9 µM) |  |  | 140 (≈ 249 µM) |  | 4 | 28 | 56 | 4 | 7 (≈ 12.4 µM) | 28 (≈ 49.7 µM) |  | 56 (≈ 99.5 µM) |  | 
6 | CC(C)OC(=O)CC[C@@H](C)[C@H]1CCC2C3C(CC[C@@]21C)[C@@]1(C)CC[C@H](NCCCN(C)CCCN)CC1C[C@@H]3O (stereo partly drawn) [(44), isopropyl 3β-(bis(3-aminopropyl)methylamine)ursodeoxycholate] |  | 28 (≈ 49.8 µM) | 14 (≈ 24.9 µM) |  |  | 28 (≈ 49.8 µM) |  |  |  |  |  | 55 |  |  | 56 (≈ 99.7 µM) | 14 |  |  | 
7 | CC(C)OC(=O)CC[C@@H](C)[C@H]1CCC2C3CCC4C[C@@H](NCCCN(CCCN)CCCN)CC[C@]4(C)C3CC[C@@]21C (stereo partly drawn) [(47), isopropyl 3β-(tris(3-aminopropyl)amine)lithocholate] |  | 7 (≈ 11.9 µM) | 4 (≈ 6.79 µM) |  |  | 30 (≈ 50.9 µM) |  |  |  |  |  | 30 |  |  | 60 (≈ 102 µM) | 4 |  | 120 (≈ 204 µM) | 2 (≈ 3.4 µM)
8 | CC(C)OC(=O)CC[C@@H](C)[C@H]1CCC2C3CCC4C[C@@H](NCCN(CCN)CCN)CC[C@]4(C)C3CC[C@@]21C (stereo partly drawn) [(48), isopropyl 3β-(tris(2-aminoethyl)amine)lithocholate] |  |  | 7 (≈ 12.8 µM) |  |  |  |  |  |  |  |  | 55 |  |  |  | 7 |  |  | 
9 | CC(C)OC(=O)CC[C@@H](C)[C@H]1CCC2C3CCC4C[C@@H](NCCCN(C)CCCN)CC[C@]4(C)C3CC[C@@]21C (stereo partly drawn) [(49), isopropyl 3β-(bis(3-aminopropyl)methylamine)lithocholate] |  | 27 (≈ 49.5 µM) | 14 (≈ 25.6 µM) |  |  | 27 (≈ 49.5 µM) |  |  |  |  |  | 55 |  |  | 27 (≈ 49.5 µM) | 14 |  |  | 

From patent US20190255073A1, “ESTERS OF 3-POLYAMINE DERIVATIVES OF BILE ACIDS FOR THE TREATMENT OF INFECTIONS” (VIRBAC, priority 2016, published 2019)
